In ChEMBL document CHEMBL5634143, “Development of teixobactin analogues containing hydrophobic, non-proteogenic amino acids that are highly potent against multidrug-resistant bacteria and biofilms” (Eur J Med Chem, 2023) one finds MIC data, which are given here for seven molecules.

In brackets after ≈: the same amount, converted by molar mass.

What all share (format): functional
Assay [1] concerns Bacillus subtilis. Briefly: Antibacterial activity against Bacillus subtilis ATCC 6633 assessed as inhibition of bacterial growth.
Assay [2] deals with Staphylococcus epidermidis. The experiment in a line: Antibacterial activity against Staphylococcus epidermidis 12228 assessed as inhibition of bacterial growth.
Assay [3] relates to Enterococcus faecium. The experiment in a line: Antibacterial activity against Vancomycin-resistant Enterococcus […] ATCC 29212 assessed as inhibition of bacterial growth. The settings on record: Enterococcus faecalis.
Assay [4] concerns Staphylococcus aureus. Briefly: Antibacterial activity against methicilin-resistant Staphylococcus aureus 42412 assessed as inhibition of bacterial growth.
For assay [5], the system named is Staphylococcus aureus. The experiment in a line: Antibacterial activity against methicilin-resistant Staphylococcus aureus 21455 assessed as inhibition of bacterial growth.
For assay [6], the system named is Enterococcus faecium. The experiment in a line: Antibacterial activity against Vancomycin-resistant Enterococcus […] ATCC 700802 assessed as inhibition of bacterial growth.
For assay [7], the system named is Staphylococcus saprophyticus. The experiment in a line: Antibacterial activity against Staphylococcus saprophyticus ATCC 15305 assessed as inhibition of bacterial growth.
The subject of assay [8] is Staphylococcus aureus. Briefly: Antibacterial activity against Staphylococcus aureus 29213 assessed as inhibition of bacterial growth.
The test system of assay [9] is Staphylococcus saprophyticus. The experiment in a line: Antibacterial activity against Staphylococcus saprophyticus ATCC BAA 750 assessed as inhibition of bacterial growth.
Assay [10] deals with Staphylococcus aureus. Briefly: Antibacterial activity against methicilin-resistant Staphylococcus aureus 1003 assessed as inhibition of bacterial growth.
The test system of assay [11] is Staphylococcus aureus. Briefly: Antibacterial activity against methicilin-resistant Staphylococcus aureus ATCC 700699 assessed as inhibition of bacterial growth.
The subject of assay [12] is Staphylococcus saprophyticus. The experiment in a line: Antibacterial activity against Staphylococcus saprophyticus ATCC 49907 assessed as inhibition of bacterial growth.
The test system of assay [13] is Staphylococcus saprophyticus. The experiment in a line: Antibacterial activity against Staphylococcus saprophyticus ATCC 49453 assessed as inhibition of bacterial growth.
Assay [14] concerns Enterococcus faecium. The experiment in a line: Antibacterial activity against Vancomycin-resistant Enterococcus faecium 1014 assessed as inhibition of bacterial growth.
The subject of assay [15] is Staphylococcus aureus. Briefly: Antibacterial activity against Staphylococcus aureus 4299 assessed as inhibition of bacterial growth.
The test system of assay [16] is Bacillus cereus. Briefly: Antibacterial activity against Bacillus cereus ATCC 11788 assessed as inhibition of bacterial growth.

The term MIC denotes the lowest concentration that inhibits growth of the organism. In the case of `CCC[C@@H]1NC(=O)[C@H](C)NC(=O)[C@H](NC(=O)[C@H](CO)NC(=O)[C@@H](NC(=O)[C@H](NC(=O)[C@@H](CCC(N)=O)NC(=O)[C@H](CO)NC(=O)[C@@H](NC(=O)[C@@H](Cc2ccccc2)NC)[C@@H](C)CC)[C@@H](C)CC)[C@@H](C)CC)[C@H](C)OC(=O)[C@H]([C@@H](C)CC)NC1=O`, the MIC in assay [1] stood at 0.063 µg/mL (≈ 0.0531 µM); in assay [2], 0.125 µg/mL (≈ 0.105 µM); in assay [3] it was 1 µg/mL (≈ 0.842 µM); in [4], 0.063 µg/mL (≈ 0.0531 µM); in [5] it was 0.125 µg/mL (≈ 0.105 µM); in assay [6], 1 µg/mL (≈ 0.842 µM). Further, the minimum inhibitory concentration (MIC) in assay [7] was found to be 0.063 µg/mL (≈ 0.0531 µM); in assay [8] it was 0.125 µg/mL (≈ 0.105 µM); in assay [9], 0.063 µg/mL (≈ 0.0531 µM); in [10], 0.25 µg/mL (≈ 0.211 µM); in assay [11], 0.5 µg/mL (≈ 0.421 µM); in assay [12] it was 0.063 µg/mL (≈ 0.0531 µM). The minimum inhibitory concentration (MIC) in [13] is 0.063 µg/mL (≈ 0.0531 µM); in assay [14], 1 µg/mL (≈ 0.842 µM); in [15] it was 0.063 µg/mL (≈ 0.0531 µM); in assay [16], 0.063 µg/mL (≈ 0.0531 µM).

On to `CCCCCCCCCC(=O)N[C@@H](Cc1c[nH]c2ccccc12)C(=O)N[C@H](CC(N)=O)C(=O)N[C@@H](CC(=O)O)C(=O)N[C@@H]1C(=O)NCC(=O)N[C@@H](CCCN)C(=O)N[C@@H](CC(=O)O)C(=O)N[C@H](C)C(=O)N[C@@H](CC(=O)O)C(=O)NCC(=O)N[C@H](CO)C(=O)N[C@@H]([C@H](C)CC(=O)O)C(=O)N[C@@H](CC(=O)c2ccccc2N)C(=O)O[C@@H]1C`, for which the minimal inhibitory concentration (MIC) in assay [1] was found to be 0.125 µg/mL (≈ 0.0771 µM); in [2] it was 0.125 µg/mL (≈ 0.0771 µM); in assay [3], 1 µg/mL (≈ 0.617 µM); in assay [4], 1 µg/mL (≈ 0.617 µM); in [5], 0.5 µg/mL (≈ 0.309 µM); in assay [6] it was 1 µg/mL (≈ 0.617 µM). Moreover, the MIC in assay [7] is 0.125 µg/mL (≈ 0.0771 µM); in [8], 0.25 µg/mL (≈ 0.154 µM); in assay [9] it was 0.125 µg/mL (≈ 0.0771 µM); in assay [10] it was 2 µg/mL (≈ 1.23 µM); in assay [11], 2 µg/mL (≈ 1.23 µM); in [12], 0.125 µg/mL (≈ 0.0771 µM). Besides, the minimal inhibitory concentration (MIC) in [13] was found to be 0.125 µg/mL (≈ 0.0771 µM); in [14], 2 µg/mL (≈ 1.23 µM); in assay [15], 0.25 µg/mL (≈ 0.154 µM); in assay [16], 0.125 µg/mL (≈ 0.0771 µM).

In the case of `CCC[C@@H]1NC(=O)[C@H](CCCNC(=N)N)NC(=O)[C@H](NC(=O)[C@H](CO)NC(=O)[C@@H](NC(=O)[C@H](NC(=O)[C@@H](CCCNC(=N)N)NC(=O)[C@H](CCCNC(=N)N)NC(=O)[C@@H](NC(=O)[C@@H](Cc2ccccc2)NC)[C@@H](C)CC)[C@@H](C)CC)[C@@H](C)CC)[C@H](C)OC(=O)[C@H]([C@@H](C)CC)NC1=O`, the minimum inhibitory concentration (MIC) in assay [1] is 16 µg/mL (≈ 11.7 µM); in assay [2], 2 µg/mL (≈ 1.46 µM); in [3], 32 µg/mL (≈ 23.4 µM); in assay [4], 32 µg/mL (≈ 23.4 µM); in assay [5] it was 16 µg/mL (≈ 11.7 µM); in assay [6], 32 µg/mL (≈ 23.4 µM). Besides, the minimal inhibitory concentration (MIC) was 0.25 µg/mL (≈ 0.183 µM) in [7]; 16 µg/mL (≈ 11.7 µM) in [8]; 0.5 µg/mL (≈ 0.365 µM) in assay [9]; more than 32 µg/mL in assay [10]; 32 µg/mL (≈ 23.4 µM) in assay [11]; 0.5 µg/mL (≈ 0.365 µM) in [12]. Moreover, the MIC in [13] was 0.25 µg/mL (≈ 0.183 µM); in assay [14], 8 µg/mL (≈ 5.84 µM); in [15], 16 µg/mL (≈ 11.7 µM); in assay [16], 2 µg/mL (≈ 1.46 µM).

`CC[C@H](C)[C@H](NC(=O)[C@@H](Cc1ccccc1)NC)C(=O)N[C@@H](CO)C(=O)N[C@H](CCC(N)=O)C(=O)N[C@@H](C(=O)N[C@H](C(=O)N[C@@H](CO)C(=O)N[C@H]1C(=O)N[C@@H](CCCNC(=N)N)C(=O)N[C@@H](C2CCCCC2)C(=O)N[C@@H]([C@@H](C)CC)C(=O)O[C@H]1C)[C@@H](C)CC)[C@@H](C)CC`: the minimum inhibitory concentration (MIC) in [1] came to 0.063 µg/mL (≈ 0.048 µM); in assay [2], 0.063 µg/mL (≈ 0.048 µM); in assay [3] it was 1 µg/mL (≈ 0.762 µM); in [4], 0.063 µg/mL (≈ 0.048 µM); in assay [5], 0.5 µg/mL (≈ 0.381 µM); in [6], 0.5 µg/mL (≈ 0.381 µM). Besides, the minimal inhibitory concentration (MIC) in assay [7] is less than 0.063 µg/mL; in assay [8] it was 0.063 µg/mL (≈ 0.048 µM); in assay [9], 0.063 µg/mL (≈ 0.048 µM); in assay [10], 0.125 µg/mL (≈ 0.0952 µM); in assay [11] it was 0.5 µg/mL (≈ 0.381 µM); in assay [12] it was 0.063 µg/mL (≈ 0.048 µM). Further, the MIC turned out to be 0.125 µg/mL (≈ 0.0952 µM) in assay [13], 0.25 µg/mL (≈ 0.19 µM) in [14], 0.063 µg/mL (≈ 0.048 µM) in assay [15] and 0.25 µg/mL (≈ 0.19 µM) in assay [16].

On to `CCC[C@@H]1NC(=O)[C@H](CCCNC(=N)N)NC(=O)[C@H](NC(=O)[C@H](CO)NC(=O)[C@@H](NC(=O)[C@H](NC(=O)[C@@H](CCC(N)=O)NC(=O)[C@H](CCCNC(=N)N)NC(=O)[C@@H](NC(=O)[C@@H](Cc2ccccc2)NC)[C@@H](C)CC)[C@@H](C)CC)[C@@H](C)CC)[C@H](C)OC(=O)[C@H]([C@@H](C)CC)NC1=O`, for which the minimal inhibitory concentration (MIC) came out at 0.063 µg/mL (≈ 0.047 µM) in assay [1]; 0.063 µg/mL (≈ 0.047 µM) in assay [2]; 2 µg/mL (≈ 1.49 µM) in assay [3]; 0.125 µg/mL (≈ 0.0932 µM) in [4]; 0.5 µg/mL (≈ 0.373 µM) in assay [5]; 2 µg/mL (≈ 1.49 µM) in assay [6]. The MIC turned out to be 0.125 µg/mL (≈ 0.0932 µM) in assay [7]; 0.5 µg/mL (≈ 0.373 µM) in [8]; 0.063 µg/mL (≈ 0.047 µM) in [9]; 1 µg/mL (≈ 0.745 µM) in [10]; 0.25 µg/mL (≈ 0.186 µM) in [11]; 0.063 µg/mL (≈ 0.047 µM) in assay [12]. Also, the MIC in assay [13] came to 0.063 µg/mL (≈ 0.047 µM); in [14], 2 µg/mL (≈ 1.49 µM); in assay [15], 0.25 µg/mL (≈ 0.186 µM); in assay [16] it was 1 µg/mL (≈ 0.745 µM).

On to `CC[C@H](C)[C@H](NC(=O)[C@@H](Cc1ccccc1)NC)C(=O)N[C@@H](CCCNC(=N)N)C(=O)N[C@H](CCC(N)=O)C(=O)N[C@@H](C(=O)N[C@H](C(=O)N[C@@H](CO)C(=O)N[C@H]1C(=O)N[C@@H](CCCNC(=N)N)C(=O)N[C@@H](C2CCCCC2)C(=O)N[C@@H]([C@@H](C)CC)C(=O)O[C@H]1C)[C@@H](C)CC)[C@@H](C)CC`, for which the MIC in assay [1] was 0.063 µg/mL (≈ 0.0456 µM); in assay [2], 0.063 µg/mL (≈ 0.0456 µM); in assay [3], 1 µg/mL (≈ 0.724 µM); in [4], 0.063 µg/mL (≈ 0.0456 µM); in assay [5] it was 0.5 µg/mL (≈ 0.362 µM); in assay [6] it was 1 µg/mL (≈ 0.724 µM). In addition, the minimal inhibitory concentration (MIC) in assay [7] was less than 0.063 µg/mL; in [8], 0.25 µg/mL (≈ 0.181 µM); in assay [9], less than 0.063 µg/mL; in assay [10], 0.5 µg/mL (≈ 0.362 µM); in assay [11], 0.5 µg/mL (≈ 0.362 µM); in assay [12], 0.063 µg/mL (≈ 0.0456 µM). The MIC was 0.063 µg/mL (≈ 0.0456 µM) in assay [13], 1 µg/mL (≈ 0.724 µM) in assay [14], 0.063 µg/mL (≈ 0.0456 µM) in assay [15] and 1 µg/mL (≈ 0.724 µM) in assay [16].

Regarding `CCC[C@@H]1NC(=O)[C@H](CCCNC(=N)N)NC(=O)[C@H](NC(=O)[C@H](CO)NC(=O)[C@@H](NC(=O)[C@H](NC(=O)[C@@H](CCC(N)=O)NC(=O)[C@H](CO)NC(=O)[C@@H](NC(=O)[C@@H](Cc2ccccc2)NC)[C@@H](C)CC)[C@@H](C)CC)[C@@H](C)CC)[C@H](C)OC(=O)[C@H]([C@@H](C)CC)NC1=O`, the minimal inhibitory concentration (MIC) came to 0.063 µg/mL (≈ 0.0495 µM) in assay [1]; 0.063 µg/mL (≈ 0.0495 µM) in assay [2]; 2 µg/mL (≈ 1.57 µM) in assay [3]; 0.063 µg/mL (≈ 0.0495 µM) in assay [4]; 0.25 µg/mL (≈ 0.196 µM) in assay [5]; 1 µg/mL (≈ 0.786 µM) in assay [6]. The MIC in assay [7] is 0.063 µg/mL (≈ 0.0495 µM); in assay [8] it was 0.5 µg/mL (≈ 0.393 µM); in assay [9], 0.063 µg/mL (≈ 0.0495 µM); in [10], 1 µg/mL (≈ 0.786 µM); in assay [11], 0.5 µg/mL (≈ 0.393 µM); in assay [12], 0.063 µg/mL (≈ 0.0495 µM). Also, the MIC is 0.063 µg/mL (≈ 0.0495 µM) in assay [13], 2 µg/mL (≈ 1.57 µM) in [14], 0.25 µg/mL (≈ 0.196 µM) in [15] and 0.5 µg/mL (≈ 0.393 µM) in assay [16].
